Data set [1] relates to NO production in LPS-stimulated RAW264.7 cells. Nature of the data set: Inhibition of nitric oxide (NO) production in LPS-stimulated RAW264.7 cells (Griess reagent). The data set is classed as cell-based. Particulars: 1 μg/mL LPS, read-out: IC50 value, NO production inhibitory effect.
Method: (§1) RAW264.7 cells were cultured in Dulbecco’s modified essential medium (DMEM, Gibco). The cells were incubated at 37 °C in DMEM with 10% fetal bovine serum (FBS, Gibco), penicillin (100 U/mL, Gibco), and streptomycin sulfate (100 μg/mL, Gibco) under a humidified atmosphere containing 5% CO2. Briefly, 2 × 10^4 cells/well treated for 24 h with vehicle or compounds were examined for cell viability based on the MTT (3-(4,5-dimethylthiazol-2-yl)-2,5-diphenyltetrazolium bromide assay) method.[60] Survival of macrophage cells after treatment with compounds was measured at a wavelength of 570 nm.
(§2) RAW264.7 cells (2 × 10^4 cells/well) were stimulated with or without 1 μg/mL lipopolysaccharide (LPS, Sigma) for 24 h in the presence or absence of the test compounds at different concentrations. Afterward, 100 μL of the cell culture supernatant was mixed with 100 μL of Griess reagent.[61] The remaining cells from the Griess assay were then utilized to determine their viability by using the MTT colorimetric assay described above.
Data set [2] in a line: RAW264.7 cell viability (MTT) alongside the NO assay. Particulars: RAW264.7 cells.
Method: as §1, §2
The nature of data set [3]: HepG2 cytotoxicity test (MTT, 48 h). As to conditions: human, HepG2 cells.
Method: Human hepatocellular carcinoma HepG2 cells were cultured in DMEM (Gibco) supplemented with 10% FBS (Gibco) and 1% antibiotic–antimycotic (Gibco, 15240062). Once cells reached approximately 80% confluence, they were washed with PBS and detached using trypsin-EDTA (Gibco, 25200072) at 37 °C for 5 min. Cells were then seeded into 96-well plates at a density of 3 × 10^4 cells per well (100 μL/well) and incubated for 24 h at 37 °C in a humidified atmosphere with 5% CO2.
After the initial incubation, the medium was replaced with 100 μL of fresh medium containing the test compounds, and the cells were incubated for an additional 48 h. Cell viability was determined using the MTT assay, following standard protocols with untreated cells serving as the control. The percentage of cell viability was calculated using the following formula: % viability = [(number of viable cells)/(total cells)] × 100. The concentration of the test compounds was set at 80 μM for the screening.
Data set [4] in a line: Hepatoprotective effect in acetaminophen-induced hepatotoxicity in HepG2 cell model (MTT). The format is cell-based. Particulars: human, HepG2 cells, HepG2, 6 mM APAP, control without APAP 100%, read-out: Cell viability, treated only with acetaminophen (APAP). As for the experimental part:
Compounds that maintained cell viability above 80% were subsequently tested for their hepatoprotective properties using an acetaminophen-induced hepatotoxicity model in HepG2 cells. […] Afterward, the cells were treated with the test compounds. Eight hours later, hepatotoxicity was induced by adding acetaminophen (6 mM, Sigma-Aldrich A7085) to the wells. Cell viability was measured using the MTT assay 36 h after acetaminophen exposure, and the results were used to assess the hepatoprotective effects of the compounds.

Read-outs that look alike come from different tables or passages of the source.

What is called IC50 is the concentration at which inhibition is half-maximal. One may read the viability as a read-out of living cells in per cent, often relative to untreated cells. For `COC(=O)C1=CO[C@@H](O[C@@H]2O[C@H](CO[C@H]3O[C@H](CO)[C@H](O)[C@H](O)[C@H]3O)[C@@H](O)[C@H](O)[C@H]2O)[C@@H]2[C@@H](C)[C@@H](O)C[C@H]12` [Compound 1, loganin 6′-O-α-D-galactopyranoside], the half-maximal inhibitory concentration (IC50) in data set [1] (24 h) stood at 9.18 ± 0.3 µM; in data set [1] (Mus musculus, RAW264.7, 24 h) it was 9.19 µM. Also, the viability at 48 h, 80 µM in data set [2] was determined as 97.7 ± 2.3%.
`C=C[C@H]1[C@H](O[C@@H]2O[C@H](CO)[C@@H](O)[C@H](O)[C@H]2O)OC=C(C(=O)O[C@H]2C[C@@H]3C(C(=O)OC)=CO[C@@H](O[C@@H]4O[C@H](CO)[C@@H](O)[C@H](O)[C@H]4O)[C@@H]3[C@H]2C)[C@H]1CC=O` [Compound 12, cantleyoside]: the values for the viability at 48 h, 80 µM in data set [3] and in data set [2] were > 80% and 93.9 ± 2.5%, respectively.
For `C=C[C@@H]1[C@H](O[C@@H]2O[C@H](CO)[C@@H](O)[C@H](O)[C@H]2O)OC=C(C(=O)O[C@H]2C[C@@H]3C(C(=O)OC)=CO[C@H](O[C@@H]4O[C@H](CO)[C@@H](O)[C@H](O)[C@H]4O)[C@@H]3[C@H]2C)[C@@H]1/C(C=O)=C\C[C@H]1C(C(=O)O[C@H]2C[C@@H]3CCOC(=O)[C@@H]3[C@H]2C)=CO[C@@H](O[C@@H]2O[C@H](CO)[C@@H](O)[C@H](O)[C@H]2O)[C@H]1C=C` [Compound 8, gomphandranoside H], the IC50 in data set [1] (Mus musculus, RAW264.7, 24 h) came to 14.4 ± 1.2 µM. The viability at 48 h, 80 µM in data set [2] was 100 ± 2.5%.
As for `C=C[C@H]1[C@H](O[C@@H]2O[C@H](CO)[C@@H](O)[C@H](O)[C@H]2O)OC=C(C(=O)O[C@H]2C[C@@H]3C(C(=O)OC)=CO[C@@H](O[C@@H]4O[C@H](CO)[C@@H](O)[C@H](O)[C@H]4O)[C@@H]3[C@@H]2C)[C@H]1/C=C(\C=O)[C@@H]1C(C(=O)O[C@H]2C[C@@H]3C(C(=O)OC)=CO[C@@H](O[C@@H]4O[C@H](CO)[C@@H](O)[C@H](O)[C@H]4O)[C@@H]3[C@H]2C)=CO[C@@H](O[C@@H]2O[C@H](CO)[C@@H](O)[C@H](O)[C@H]2O)[C@@H]1C=C` [Compound 17, dipsanoside B], the IC50 in data set [1] (Mus musculus, RAW264.7, 24 h) worked out at 14.4 ± 1.5 µM. The viability at 48 h, 80 µM was > 80% in data set [3] and 94.2 ± 4.6% in data set [2].
On the same counts, the results for `C=C[C@H]1[C@H](O[C@@H]2O[C@H](CO)[C@@H](O)[C@H](O)[C@H]2O)OC=C(C(=O)O[C@H]2C[C@@H]3C(C(=O)OC)=CO[C@@H](O[C@@H]4O[C@H](CO)[C@@H](O)[C@H](O)[C@H]4O)[C@@H]3[C@H]2C)[C@H]1C[C@@H]1N[C@H](C(=O)O)Cc2c1[nH]c1ccccc21` [Compound 16, dipsaperine] are 17 ± 1.1 µM, > 80% and 95.2 ± 2.1%.
As for `COC(=O)C1=CO[C@@H](O[C@@H]2O[C@H](CO)[C@@H](O)[C@H](O)[C@H]2O)[C@@H]2[C@@H](C)[C@@H](O)C[C@H]12` [Compound 18, loganin], the IC50 in data set [1] (Mus musculus, RAW264.7, 24 h) is 51.1 ± 1.8 µM. Also, the results for the viability at 48 h, 80 µM in data set [3] and in data set [2] were > 80% and 98.1 ± 4%, respectively.
The corresponding values for `C=C[C@H]1[C@H](O[C@@H]2O[C@H](CO)[C@@H](O)[C@H](O)[C@H]2O)OC=C(C(=O)O[C@H]2C[C@@H]3C(C(=O)OC)=CO[C@@H](O[C@@H]4O[C@H](CO)[C@@H](O)[C@H](O)[C@H]4O)[C@@H]3[C@@H]2C)[C@H]1/C=C(\C=O)[C@@H]1C(C(=O)O[C@@H]2C[C@@H]3C(C(=O)OC)=CO[C@@H](O[C@@H]4O[C@H](CO)[C@@H](O)[C@H](O)[C@H]4O)[C@@H]3[C@@H]2C)=CO[C@@H](O[C@@H]2O[C@H](CO)[C@@H](O)[C@H](O)[C@H]2O)[C@@H]1C=C` [Compound 15, dipsanoside A] are 6.13 ± 0.5 µM, > 80% and 99.5 ± 3.6%.
Regarding `C=CC1C(CC=O)C(C(=O)O[C@H]2CC3C(C(=O)OC)=CO[C@@H](O[C@@H]4O[C@H](CO)[C@@H](O)[C@H](O)[C@H]4O)C3[C@H]2C)=CO[C@H]1O[C@@H]1O[C@H](CO)[C@@H](O)[C@H](O)[C@H]1O` (stereo partly shown) [Compound 12, cantleyoside], the IC50 in data set [1] (Mus musculus, RAW264.7, 24 h) is 23.1 ± 1.7 µM.
In the case of `C=C[C@H]1[C@H](O[C@@H]2O[C@H](CO)[C@@H](O)[C@H](O)[C@H]2O)OC=C(C(=O)O[C@H]2C[C@@H]3C(C(=O)OC)=CO[C@@H](O[C@H]4O[C@H](CO)[C@@H](O)[C@H](O)[C@H]4O)[C@@H]3[C@H]2C)[C@H]1C1=COC[C@@H]2[C@H]3[C@@H](O[C@@H]4O[C@H](CO)[C@@H](O)[C@H](O)[C@H]4O)OC=C(C(=O)O[C@H]4C[C@@H]5C(C(=O)OC)=CO[C@@H](OC6O[C@H](CO)[C@@H](O)[C@H](O)[C@H]6O)[C@@H]5[C@H]4C)[C@H]3C[C@H]12` (stereo partly shown) [Compound 10, gomphandranoside K], in data set [1] (Mus musculus, RAW264.7, 24 h), the concentration for half-maximal inhibition (IC50) worked out at 12.2 ± 1.1 µM. In addition, the viability at 48 h, 80 µM in data set [2] worked out at 96.7 ± 1.5%.
`C=C[C@H]1[C@H](O[C@@H]2O[C@H](CO)[C@@H](O)[C@H](O)[C@H]2O)OC=C(C(=O)O[C@H]2C[C@@H]3C(C(=O)OC)=CO[C@@H](O[C@@H]4O[C@H](CO)[C@@H](O)[C@H](O)[C@H]4O)[C@@H]3[C@H]2C)[C@H]1C1=CO[C@H]2C[C@@H]1C[C@@H]1C(C(=O)O[C@H]3C[C@@H]4C(C(=O)OC)=CO[C@@H](O[C@@H]5O[C@H](CO)[C@@H](O)[C@H](O)[C@H]5O)[C@@H]4[C@H]3C)=CO[C@@H](O[C@@H]3O[C@H](CO)[C@@H](O)[C@H](O)[C@H]3O)[C@H]21` [Compound 9, gomphandranoside I]: the IC50 in data set [1] (Mus musculus, RAW264.7, 24 h) stood at 12.9 ± 0.5 µM. The values for the viability at 48 h, 80 µM in data set [3] and in data set [2] were > 80% and 98.3 ± 2.6%, respectively.
Consider `C=C[C@H]1[C@H](O[C@@H]2O[C@H](CO)[C@@H](O)[C@H](O)[C@H]2O)OC=C(C(=O)O[C@H]2C[C@@H]3C(C(=O)OC)=CO[C@@H](O[C@@H]4O[C@H](CO)[C@@H](O)[C@H](O)[C@H]4O)[C@@H]3[C@H]2C)[C@H]1C[C@@H]1O[C@@H]2[C@@H](O)[C@@H](OC[C@H]3O[C@@](CO)(O[C@H]4O[C@H](CO)[C@@H](O)[C@H](O)[C@H]4O)[C@@H](O)[C@@H]3O)O[C@H](CO)[C@@H]2O1` [Compound 6, gomphandranoside F], for which the IC50 in data set [1] (Mus musculus, RAW264.7, 24 h) turned out to be 20.2 ± 1.1 µM. The viability at 48 h, 80 µM in data set [3] is > 80%; in data set [2] it was 94.6 ± 4.5%.
In the case of `CC(=O)Nc1ccc(O)cc1` [acetaminophen (APAP), acetaminophen], in data set [4], the viability at 36 h, 6 mM was found to be 68.1%.
For the compound `C=C[C@H]1[C@H](O[C@@H]2O[C@H](CO)[C@@H](O)[C@H](O)[C@H]2O)OC=C(C(=O)O[C@H]2C[C@@H]3CCOC(=O)[C@@H]3[C@H]2C)[C@H]1C[C@@H](O)O[C@@H](O)C[C@@H]1C(C(=O)O[C@H]2C[C@@H]3CCOC(=O)[C@@H]3[C@H]2C)=CO[C@@H](O[C@@H]2O[C@H](CO)[C@@H](O)[C@H](O)[C@H]2O)[C@@H]1C=C` [Compound 7, gomphandranoside G], the IC50 in data set [1] (Mus musculus, RAW264.7, 24 h) stood at 14.7 ± 0.9 µM. Moreover, the figures for the viability at 48 h, 80 µM in data set [3] and in data set [2] were > 80% and 95.3 ± 2.4%, respectively.
On the same counts, the results for `C=CC1C(CC(OC)OC)C(C(=O)O[C@H]2CC3C(C(=O)OC)=CO[C@@H](O[C@@H]4O[C@H](CO)[C@@H](O)[C@H](O)[C@H]4O)C3[C@H]2C)=CO[C@H]1O[C@@H]1O[C@H](CO)[C@@H](O)[C@H](O)[C@H]1O` (stereo partly shown) [Compound 11, cantleyoside-dimethyl-acetal] are 26.2 ± 1.3 µM, > 80% and 94.8 ± 3.7%.
On to `C[C@@H]1C[C@H]2[C@@H]3CCC4=CC(=O)C=C[C@]4(C)[C@@]3(F)[C@@H](O)C[C@]2(C)[C@@]1(O)C(=O)CO` [dexamethasone, reference compound], for which the IC50 in data set [1] (Mus musculus, RAW264.7, 24 h) was determined as 9.08 ± 0.5 µM. The viability at 48 h, 20 µM in data set [2] came out at 96.3 ± 2.6%.
With `C=C[C@H]1[C@H](O[C@@H]2O[C@H](CO)[C@@H](O)[C@H](O)[C@H]2O)OC=C(C(=O)O[C@H]2C[C@@H]3C(C(=O)OC)=CO[C@@H](O[C@@H]4O[C@H](CO)[C@@H](O)[C@H](O)[C@H]4O)[C@@H]3[C@H]2C)[C@H]1C[C@H]1OC[C@H]2O[C@H](OC[C@H]3O[C@](O)(CO)[C@@H](O)[C@@H]3O)[C@H](O)[C@@H](O)[C@H]2O1` [Compound 5, gomphandranoside E], the IC50 in data set [1] (Mus musculus, RAW264.7, 24 h) came to 17.7 ± 0.4 µM. The viability at 48 h, 80 µM is > 80% in data set [3] and 98.9 ± 3.1% in data set [2].
On the same counts, the results for `C=C[C@H]1[C@H](O[C@@H]2O[C@H](CO)[C@@H](O)[C@H](O)[C@H]2O)OC=C(C(=O)O[C@H]2C[C@@H]3C(C(=O)OC)=CO[C@@H](O[C@@H]4O[C@H](CO)[C@@H](O)[C@H](O)[C@H]4O)[C@@H]3[C@H]2C)[C@H]1C[C@H]1OC[C@H]2O[C@H](OC[C@H]3O[C@@](CO)(O[C@H]4O[C@H](CO)[C@@H](O)[C@H](O)[C@H]4O)[C@@H](O)[C@@H]3O)[C@H](O)[C@@H](O)[C@H]2O1` [Compound 4, gomphandranoside D] are 19.5 ± 0.3 µM, > 80% and 95.1 ± 2.8%.
On the same counts, the results for `C=C[C@H]1[C@H](O[C@@H]2O[C@H](CO)C(O)[C@H](O)[C@H]2O)OC=C(C(=O)O[C@H]2C[C@@H]3CCOC(=O)[C@@H]3[C@H]2C)[C@H]1CC(OC)OC` (stereo partly shown) [Compound 3, gomphandranoside C] are 23.8 ± 2.6 µM, > 80% and 103 ± 3.5%.

These data come from publication PMC11877508, “Anti-inflammatory and Hepatoprotective Iridoid Glycosides from the Roots of Gomphandra mollis” (Journal of Natural Products, 2025).
